Measured values published in patent publication EP0326329B1, “Quinazoline derivatives useful as insecticides” (Dow AgroSciences LLC, priority 1988, dated 1989).

Legend:
Assay type in all cases: in vivo
[1] = system: Erysiphe graminis tritici (powdery mildew); experiment: Greenhouse Test 1, foliar spray fungicide screen (POWD MDEW), host wheat; conditions: disease control rating, 400 ppm (+++ at 100 ppm)
[2] = system: Puccinia recondita tritici (leaf rust); experiment: Greenhouse Test 1, foliar spray fungicide screen (LEAF RUST), host wheat; conditions: disease control rating, 400 ppm (+++ at 100 ppm)
[3] = system: Twospotted spider mites (Tetranychus urticae Koch); experiment: Mite/insect screen, sprayed squash cotyledons (SM); conditions: percent mortality; for mortality at 200 ppm / mortality at 400 ppm: Tetranychus urticae, read-out: SM RESULTS %; for mortality at 400 ppm: spray rate 400 ppm
How it was run: (§1)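 Water-diluted formulations of each compound (acetone/alcohol 50:50 with 23 g/L and 13 g/L emulsifier blends) are sprayed over both leaf faces to runoff. After a standard exposure period, percent kill and phytotoxicity are recorded.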

[4] = system: Pyricularia oryzae (rice blast); conditions: disease control rating, foliar spray, host rice; 400 ppm (+++ at 100 ppm)
[5] = system: southern armyworm (Spodopetra eridania Cramer); experiment: Mite/insect screen, sprayed squash leaves (SAW); conditions: percent mortality; for mortality at 200 ppm / mortality at 400 ppm: Spodoptera eridania, read-out: SAW RESULTS %; for mortality at 400 ppm: spray rate 400 ppm
How it was run: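 Percent mortality and phytotoxicity are the read-outs, assessed after standard exposure periods. Test solutions, made in 50:50 acetone/alcohol with two sulfonate/nonionic emulsifier blends and diluted in water, are sprayed to runoff on both leaf surfaces, which then dry for one hour.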

[6] = system: Botrytis cinerea (gray mold); experiment: Greenhouse Test 1, foliar spray fungicide screen (GRAY MOLD), host grape berries; conditions: disease control rating, 400 ppm (+++ at 100 ppm)
[7] = system: Southern corn rootworm (Diabrotica undecimpuctata howardi Barber); experiment: Mite/insect screen, soil treatment (CRW); conditions: percent mortality; for mortality at 12 ppm / mortality at 24 ppm: Diabrotica, read-out: CRW RESULTS %; for mortality at 24 ppm: CRW rate 24.00 ppm
How it was run: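 Compounds dissolved in acetone/alcohol (50:50) with Toximul R/S emulsifiers, diluted with water. Soil (15 g, with presoaked corn seed) treated with 1 mL test solution, dried 6–12 h, then five 2–3 instar larvae added; held at 23°C. Percent mortality and phytotoxicity scored after standard exposure periods.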

[8] = system: Pseudoperonospora cubensis (downy mildew); experiment: Greenhouse Test 1, foliar spray fungicide screen (DOWN MDEW), host squash; conditions: disease control rating, 400 ppm (+++ at 100 ppm)
[9] = system: melon aphids (Aphis gossypii Glover); experiment: Mite/insect screen, sprayed squash cotyledons (MA); conditions: percent mortality; for mortality at 200 ppm / mortality at 400 ppm: Aphis gossypii, read-out: MA RESULTS %; for mortality at 400 ppm: spray rate 400 ppm
How it was run: as §1

[10] = soil treatment, CRW rate 12.00 ppm

SMILES | POWD MDEW [1] | LEAF RUST [2] | mortality at 200 ppm ([3]; spray rate 200 ppm) [%] | mortality at 400 ppm [3] [%] | RICE BLAST [4] | mortality at 200 ppm ([5]; spray rate 200 ppm) [%] | mortality at 400 ppm [5] [%] | GRAY MOLD [6] | mortality at 12 ppm [7, 10] [%] | mortality at 24 ppm ([7]; soil treatment) [%] | DOWN MDEW [8] | mortality at 200 ppm ([9]; spray rate 200 ppm) [%] | mortality at 400 ppm [9] [%] | further results
CC(C)c1ccc(CCCOc2ncnc3c(F)cccc23)cc1 [Example 152, 8-fluoro-4-[3-[4-(1-methylethyl)phenyl]propoxy]quinazoline] | +++ (+++ = 90-100% control at 100 ppm) | + (+ = 20-89% control at 400 ppm) | 90 | 60 | + (+ = 20-89% control at 400 ppm) | 0 | 0 | - (- = 0-19% control at 400 ppm) | 0 | 0 | + (+ = 20-89% control at 400 ppm) | 40 | 80 | –
CC(C)(C)c1ccc(CCOc2ncnc3c(F)cccc23)cc1 [Example 94, 8-fluoro-4-[2-[4-(t-butyl)phenyl]ethoxy]quinazoline] | +++ (+++ = 90-100% control at 100 ppm) | +++ (+++ = 90-100% control at 100 ppm) | 100 | 0 | +++ (+++ = 90-100% control at 100 ppm) | 100 | 100 | - (- = 0-19% control at 400 ppm) | 0 | 0 | +++ (+++ = 90-100% control at 100 ppm) | 80 | 0 | –
COc1ccc(CCOc2ncnc3ccccc23)cc1 [Example 49, 4-[2-(4-methoxyphenyl)ethoxy]quinazoline] | +++ (+++ = 90-100% control at 100 ppm) | +++ (+++ = 90-100% control at 100 ppm) | – | 80 | +++ (+++ = 90-100% control at 100 ppm) | – | 0 | - (- = 0-19% control at 400 ppm) | – | 0 | +++ (+++ = 90-100% control at 100 ppm) | – | 0 | SM RESULTS % ([3]; rate not given): 90%; SAW RESULTS % ([5]; rate not given): 0%; CRW RESULTS % ([7]; rate not given): 0%; MA RESULTS % ([9]; rate not given): 100%
Brc1ccc(CCOc2ncnc3ccccc23)cc1 [Example 22, 4-[2-(4-bromophenyl)ethoxy]quinazoline] | +++ (+++ = 90-100% control at 100 ppm) | +++ (+++ = 90-100% control at 100 ppm) | – | 20 | +++ (+++ = 90-100% control at 100 ppm) | – | 0 | - (- = 0-19% control at 400 ppm) | – | 0 | +++ (+++ = 90-100% control at 100 ppm) | – | 80 | –
CC(C)(C)c1ccc(CCOc2ncnc3c(Cl)cccc23)cc1 [Example 185, 8-chloro-4-[2-[4-(t-butyl)phenyl]ethoxy]quinazoline] | + (+ = 20-89% control at 400 ppm) | + (+ = 20-89% control at 400 ppm) | 80 | 30 | ++ (++ = 90-100% control at 400 ppm) | 0 | 0 | - (- = 0-19% control at 400 ppm) | 0 | 0 | ++ (++ = 90-100% control at 400 ppm) | 50 | 30 | –
CC(C)c1ccc(CCNc2ncnc3cc(Cl)ccc23)cc1 [Example 40, 7-chloro-N-[2-[4-(i-propyl)phenyl]ethyl]-4-quinazolinamine] | +++ (+++ = 90-100% control at 100 ppm) | +++ (+++ = 90-100% control at 100 ppm) | 80 | 90 | ++ (++ = 90-100% control at 400 ppm) | 40 | 0 | - (- = 0-19% control at 400 ppm) | 0 | 0 | +++ (+++ = 90-100% control at 100 ppm) | 20 | 0 | –
CCOc1ccc(CCCOc2ncnc3c(F)cccc23)cc1 [Example 125, 8-fluoro-4-[3-[4-ethoxyphenyl]propoxy]quinazoline] | + (+ = 20-89% control at 400 ppm) | + (+ = 20-89% control at 400 ppm) | 0 | 0 | + (+ = 20-89% control at 400 ppm) | 0 | 0 | - (- = 0-19% control at 400 ppm) | 0 | 0 | + (+ = 20-89% control at 400 ppm) | 0 | 0 | –
c1ccc2c(CCNc3ncnc4ccccc34)cccc2c1 [Example 23, N-[2-(1-naphthyl)ethyl]-4-quinazolinamine] | - (- = 0-19% control at 400 ppm) | + (+ = 20-89% control at 400 ppm) | 0 | 0 | + (+ = 20-89% control at 400 ppm) | 0 | 0 | - (- = 0-19% control at 400 ppm) | 0 | 0 | + (+ = 20-89% control at 400 ppm) | 0 | 0 | –
FC(F)(F)Oc1ccc2ncnc(NCCc3ccc(Oc4ccccc4)cc3)c2c1 [Example 44, 6-(trifluoromethoxy)-N-[2-(4-phenoxyphenyl)ethyl]-4-quinazolinamine] | - (- = 0-19% control at 400 ppm) | - (- = 0-19% control at 400 ppm) | – | 0 | - (- = 0-19% control at 400 ppm) | – | 0 | - (- = 0-19% control at 400 ppm) | – | 0 | + (+ = 20-89% control at 400 ppm) | – | 0 | –
CC(C)(C)c1ccc(CCNc2ncnc3c(F)cccc23)cc1 [Example 100, 8-fluoro-N-[2-[4-(t-butyl)phenyl]ethyl]-4-quinazolinamine] | +++ (+++ = 90-100% control at 100 ppm) | +++ (+++ = 90-100% control at 100 ppm) | 80 | 0 | +++ (+++ = 90-100% control at 100 ppm) | 80 | 0 | - (- = 0-19% control at 400 ppm) | 0 | 100 | +++ (+++ = 90-100% control at 100 ppm) | 80 | 0 | –
Fc1cccc2c(NCC(c3ccccc3)c3ccccc3)ncnc12 [Example 61, N-(2,2-diphenylethyl)-8-fluoro-4-quinazolinamine] | - (- = 0-19% control at 400 ppm) | - (- = 0-19% control at 400 ppm) | 0 | 0 | - (- = 0-19% control at 400 ppm) | 0 | 0 | - (- = 0-19% control at 400 ppm) | 0 | 0 | - (- = 0-19% control at 400 ppm) | 0 | 0 | SM RESULTS % ([3]; spray rate 200 ppm): 0%; SAW RESULTS % ([5]; spray rate 200 ppm): 0%; CRW RESULTS % [7, 10]: 0%; MA RESULTS % ([9]; spray rate 200 ppm): 0%
